Data reported in US20250129103A1, “METHODS FOR TREATMENT OF CANCER” (Frontier Medicines Corporation, priority 2022, published 2025).
pIC50: −log10 of the molar value. In brackets after ≈: the same amount, converted by molar mass.

How the values were obtained:
[1] = target: KRAS G12C (GMPPNP-loaded) and cRAF (Ras-binding domain) interaction (Homo sapiens (Human), UniProt P01116, C118S/C51S/C80L/G12C); assay: Inhibition of KRAS G12C and cRAF binding (AlphaScreen); details: KRAS G12C loaded with GMPPNP, cRaf RBD, 2 hours preincubation; read-out: Raf-1 RBD K-Ras IC50
In short: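 GMPPNP-loaded KRAS G12C in 25 mM Hepes pH 7.4, 150 mM NaCl, 5 mM MgCl2, 0.01% Triton X-100, 10 μM GMPPNP, 2% DMSO, preincubated with compound 2 h at room temperature. cRAF RBD plus AlphaScreen beads then added for 60-90 min; signal read at 570 nm.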

[2] = target: KRAS G12C (GMPPNP-loaded) and PI3Ka (Ras-binding domain) interaction (Homo sapiens (Human), UniProt P01116, C118S/C51S/C80L/G12C); assay: Inhibition of KRAS G12C and PI3Ka binding (AlphaScreen); details: KRAS G12C loaded with GMPPNP, PI3Ka RBD, 2 hours preincubation; read-out: PI3K RBD K-Ras IC50
In short: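 Biotin-AviTag Cys-light KRAS G12C (aa 1-169, C51S/C80L/C118S), GMPPNP-loaded, 1.5 nM, preincubated 2 h with compound, then His-tagged PI3Ka RBD (aa 157-300, 100 nM) plus AlphaScreen beads added for 60-90 min, RT. Buffer Hepes pH 7.4, 10 μM GMPPNP, 2% DMSO; 10-point 1:3 from 50 μM; 4-parameter IC50.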

[3] = Determination of logD (1-octanol / phosphate buffer pH 7.4); format: physicochemical; details: 1-octanol/phosphate buffer, pH 7.4, pH 7.4, 1-octanol/phosphate buffer; read-out: Log D, pH 7.4
In short: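 Shake-flask partition between 1-octanol and 100 mM phosphate buffer pH 7.4, each phase presaturated with the other overnight. Tubes shaken 1 h at 800 rpm, room temperature, then centrifuged. Both phases quantified by LCMS and logD calculated from the ratio.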

[4] = Determination of kinetic solubility (pH 7.4); format: physicochemical; details: phosphate buffer, pH 7.4, aqueous buffer, kinetic from dmso stock, 50 mM phosphate buffer pH 7.4, read-out: Ksol, pH 7.4
In short: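 Sample mixed with 50 mM phosphate buffer, pH 7.4, vortexed, then shaken 2 h at room temperature and centrifuged. Filtrate analysed by HPLC-UV and LC-MS/MS, with solubility read from peak areas against a standard calibration curve.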

KRAS G12C (GMPPNP-loaded) and PI3Ka (Ras-binding domain) interaction, sequence (P01116 other isoform, or with tags, fused parts or gaps G12C/C51S/C80L/C118S): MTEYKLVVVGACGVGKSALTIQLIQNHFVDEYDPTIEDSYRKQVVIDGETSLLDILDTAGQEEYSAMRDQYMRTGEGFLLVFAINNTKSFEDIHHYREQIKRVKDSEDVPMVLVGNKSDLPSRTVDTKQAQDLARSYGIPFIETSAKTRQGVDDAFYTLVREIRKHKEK
KRAS G12C (GMPPNP-loaded) and cRAF (Ras-binding domain) interaction, sequence (P01116 other isoform, or with tags, fused parts or gaps G12C/C51S/C80L/C118S): as above

Row | Compound | pIC50 [1] | pIC50 [2] | logD [3] | solubility kinetic at 2 h [4]
1 | C#Cc1c(F)ccc2cccc(-c3ncc4c(N5CCN(C(=O)/C=C/c6cc(C)nc(C)n6)[C@@H](CC#N)C5)nc(OC[C@@]56CCCN5C[C@H](F)C6)nc4c3F)c12 [Compound 101, 2-((S)-1-((E)-3-(2,6-dimethylpyrimidin-4-yl)acryloyl)-4-(7-(8-ethynyl-7-fluoronaphthalen-1-yl)-8-fluoro-2-(((2R,7aS)-2-fluorotetrahydro-1H-pyrrolizin-7a(5H)-yl)methoxy)pyrido[4,3-d]pyrimidin-4-yl)piperazin-2-yl)acetonitrile] | > 8.00 | > 8.00 | 3.32 | 1.49 µg/mL (≈ 1.97 µM)
2 | Cc1cc(/C=C/C(=O)N2CCN(c3nc(OC[C@@]45CCCN4C[C@H](F)C5)nc4c(F)c(-c5cccc(Cl)c5C5CC5)ncc34)C[C@@H]2CC#N)nc(C)n1 [Compound 102, 2-((S)-4-(7-(3-chloro-2-cyclopropylphenyl)-8-fluoro-2-(((2R,7aS)-2-fluorotetrahydro-1H-pyrrolizin-7a(5H)-yl)methoxy)pyrido[4,3-d]pyrimidin-4-yl)-1-((E)-3-(2,6-dimethylpyrimidin-4-yl)acryloyl)piperazin-2-yl)acetonitrile] | > 8.00 | > 8.00 | 3.98 | 12 µg/mL (≈ 16.2 µM)
3 | N#CC[C@H]1CN(c2nc(OC[C@@]34CCCN3C[C@H](F)C4)nc3c(F)c(-c4cccc(Cl)c4C(F)(F)F)ncc23)CCN1C(=O)/C=C/CN1[C@@H]2CC[C@H]1COC2 [Compound 111, 2-((S)-1-((E)-4-((1R,5S)-3-oxa-8-azabicyclo[3.2.1]octan-8-yl)but-2-enoyl)-4-(7-(3-chloro-2-(trifluoromethyl)phenyl)-8-fluoro-2-(((2R,7aS)-2-fluorotetrahydro-1H-pyrrolizin-7a(5H)-yl)methoxy)pyrido[4,3-d]pyrimidin-4-yl)piperazin-2-yl)acetonitrile] | > 8.00 | > 8.00 | 3.23 | 133 µg/mL (≈ 169 µM)

Second part, the compound after the results:

Row | pIC50 [1] | pIC50 [2] | logD [3] | solubility kinetic at 2 h [4] | Compound
4 | > 8.00 | > 8.00 | 1.63 | 73.6 µg/mL (≈ 98.7 µM) | N#CC[C@H]1CN(c2nc(OC[C@@]34CCCN3C[C@H](F)C4)nc3c(F)c(-c4cccc5cccc(Cl)c45)ncc23)CCN1C(=O)/C=C/CN1CC[C@H](F)C1 [Compound 95, 2-((S)-4-(7-(8-chloronaphthalen-1-yl)-8-fluoro-2-(((2R,7aS)-2-fluorohexahydro-1H-pyrrolizin-7a-yl)methoxy)pyrido[4,3-d]pyrimidin-4-yl)-1-((E)-4-((S)-3-fluoropyrrolidin-1-yl)but-2-enoyl)piperazin-2-yl)acetonitrile]
5 | > 8.00 | > 8.00 | 2.82 | 64.4 µg/mL (≈ 86.5 µM) | N#CC[C@H]1CN(c2nc(OC[C@@]34CCCN3C[C@H](F)C4)nc3c(F)c(-c4cccc5cccc(Cl)c45)ncc23)CCN1C(=O)/C=C/CN1CC[C@@H](F)C1 [Compound 96, 2-((S)-4-(7-(8-chloronaphthalen-1-yl)-8-fluoro-2-(((2R,7aS)-2-fluorohexahydro-1H-pyrrolizin-7a-yl)methoxy)pyrido[4,3-d]pyrimidin-4-yl)-1-((E)-4-((R)-3-fluoropyrrolidin-1-yl)but-2-enoyl)piperazin-2-yl)acetonitrile]
6 | > 8.00 | > 8.00 | 3.29 | 10 µg/mL (≈ 13.5 µM) | C#Cc1c(F)ccc2cccc(-c3ncc4c(N5CCN(C(=O)/C=C/c6ccnc(C)n6)[C@@H](CC#N)C5)nc(OC[C@@]56CCCN5C[C@H](F)C6)nc4c3F)c12 [Compound 103, 2-((S)-4-(7-(8-ethynyl-7-fluoronaphthalen-1-yl)-8-fluoro-2-(((2R,7aS)-2-fluorotetrahydro-1H-pyrrolizin-7a(5H)-yl)methoxy)pyrido[4,3-d]pyrimidin-4-yl)-1-((E)-3-(2-methylpyrimidin-4-yl)acryloyl)piperazin-2-yl)acetonitrile]
